Assay results taken from patent US7399869B2, “Fibroblast activation protein inhibitor compounds and methods” (Genentech, Inc., priority 2005, dated 2008).
Residues, ends and D or L forms follow the SMILES beside them. *: point of attachment. CH2Cl = ClC*

Columns and labels:
FAP [1] = molecular target: T1, FAP (Homo sapiens, UniProt Q12884); test: Inhibition of FAP activity against Ala-Pro-AFC by P2-Pro-AMCC compounds; type: biochemical; design: FAP (amino acids 38-760); FLAG (N); made in house; host or cells: 293 cells (secreted, purified from serum-free conditioned media)
T1 sequence (Q12884 38-760): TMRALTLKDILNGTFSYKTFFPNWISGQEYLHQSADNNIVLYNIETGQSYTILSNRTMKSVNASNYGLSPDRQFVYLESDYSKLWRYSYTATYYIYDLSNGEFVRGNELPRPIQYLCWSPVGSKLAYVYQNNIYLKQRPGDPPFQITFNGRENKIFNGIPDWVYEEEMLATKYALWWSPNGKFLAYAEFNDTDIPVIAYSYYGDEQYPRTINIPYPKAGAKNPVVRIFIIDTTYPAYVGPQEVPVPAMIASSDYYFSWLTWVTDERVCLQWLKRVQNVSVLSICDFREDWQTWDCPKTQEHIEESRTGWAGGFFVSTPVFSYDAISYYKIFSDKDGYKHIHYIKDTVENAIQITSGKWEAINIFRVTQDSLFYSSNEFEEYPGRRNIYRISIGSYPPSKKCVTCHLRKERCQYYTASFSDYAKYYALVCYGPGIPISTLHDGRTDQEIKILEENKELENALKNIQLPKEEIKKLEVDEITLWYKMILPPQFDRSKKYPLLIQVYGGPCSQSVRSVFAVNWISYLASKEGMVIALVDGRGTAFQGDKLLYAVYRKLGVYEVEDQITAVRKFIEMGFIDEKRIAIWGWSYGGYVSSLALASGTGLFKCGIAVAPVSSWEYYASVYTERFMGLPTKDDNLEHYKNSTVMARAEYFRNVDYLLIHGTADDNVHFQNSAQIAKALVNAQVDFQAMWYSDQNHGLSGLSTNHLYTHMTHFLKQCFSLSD
Experimental: (§1) Inhibition of FAP and DPP-4 activity against Ala-Pro-AFC by P2-Pro-AMCC compounds was measured at various concentration of the P2-Pro-AMCC compounds in Table 7.

DPP-4 [2] = molecular target: T2, DPP-4 (Homo sapiens, UniProt P27487); test: Inhibition of DPP-4 activity against Ala-Pro-AFC by P2-Pro-AMCC compounds; type: biochemical; design: DPP-4 (amino acids 39-766); FLAG (N); made in house; host or cells: 293 cells (secreted, purified from serum-free conditioned media)
Experimental: as §1

FAP [3] = molecular target: T1, FAP; test: Relative cleavage rates of coumarin (AMCC) dipeptide substrates by FAP; type: biochemical; design: FAP (amino acids 38-760); FLAG (N); made in house; host or cells: 293 cells (secreted, purified from serum-free conditioned media); conditions: P2-Pro-AMCC substrates; hydrolysis rates normalized to Gly-Pro-AMCC
Experimental: (§2) The relative cleavage rates of a variety of N-blocked, C-terminal coumarin (AMCC) Gly-Pro dipeptide substrates 6 were measured. The rates were normalized to N-unblocked Gly-Pro-AMCC for FAP and DPP-4.
(§3) To examine whether FAP could cleave other N-substituted-Gly-Pro-based substrates, N-methyl-, formyl-, succinyl-, benzyloxycarbonyl-(Z-) and biotinyl-Gly-Pro-AMCC substrates 6 were synthesized and reacted with FAP (37 nM) and DPP-4 (6.8 nM).
(§4) Amino-terminus P2 was varied with the L-amino acids: alanine, aspartic acid, glutamic acid, phenylalanine, glycine, histidine, isoleucine, lysine, leucine, methionine, asparagine, proline, glutamine, arginine, serine, threonine, valine, tryptophan, and tyrosine (from left). AMCC=2-(7-amino-4-methyl-2-oxo-2H-chromen-3-yl)acetamide. For both enzymes, the amino acid adjacent in the model dipeptide substrate had little effect where the amino-terminus was unblocked. Hydrolysis rates of other P2-Pro-AMCC substrates by FAP and DPP-4 relative to Gly-Pro-AMCC include the following in Table 6:
(§5) Protease Assays—Protease activity was monitored continuously using a SpectraMax M2 microplate reader (Molecular Devices Corp., Sunnyvale Calif.) in the kinetic mode. Assays were conducted at 23° C. in 50 mM Tris (pH 7.4), 100 mM NaCl, 1 mM EDTA. The excitation/emission wavelengths for the different fluorogenic substrates were 360/460 nm (AMC), 400/505 nm (AFC), 340/425 nm (MNA), 340/510 nm (EDANS), and 337/425 nm (Abs). Standard curves of the appropriate fluorescent product versus concentration were used to convert relative fluorescence units to nmol of product produced. Substrates in the X-Pro-AMC library were used in rate assays at 5 μM final concentration. […] The kinetic parameters were calculated from Michaelis-Menten plots (V0 versus [S]) with nonlinear regression analysis using GraphPad software. kcat values were calculated under the assumption that each protease was 100% active.

DPP-4 [4] = molecular target: T2, DPP-4; test: Relative cleavage rates of coumarin (AMCC) dipeptide substrates by DPP-4; type: biochemical; design: DPP-4 (amino acids 39-766); FLAG (N); made in house; host or cells: 293 cells (secreted, purified from serum-free conditioned media); conditions: P2-Pro-AMCC substrates; hydrolysis rates normalized to Gly-Pro-AMCC
Experimental: as §2, §3, §4, §5

DPP-4 [5] = molecular target: T2, DPP-4; test: Inhibition of recombinant DPP-4 by cmk-based irreversible inhibitors; type: biochemical; design: DPP-4 (amino acids 39-766); FLAG (N); made in house; host or cells: 293 cells (secreted, purified from serum-free conditioned media); conditions: for inhibition of DPP-4: 10, 100, and 500 μM inhibitor, residual activity against L-Ala-Pro-AFC; for time course of DPP-4 activity in the presence of inhibitor: substrate L-Ala-Pro-AFC
Experimental: (§6) The cleavage activities of FAP and DPP-4 in the presence of an irreversible dipeptide inhibitor was measured (FIGS. 9-12). In each time course study (FIGS. 9-15), the protease (FAP, DPP) and the inhibitor compound were incubated together for 4 hours, then residual activity was assayed against substrate.
(§7) The cleavage activities of FAP and DPP-4 in the presence of a tetrapeptide irreversible inhibitor was measured.
(§8) Acetyl-gly-pro-chloromethyl ketone and acetyl-thre-ser-gly-pro-cmk were custom synthesized at Anaspec (San Jose, Calif.). Recombinant FAP (160 nM) and DPP-4 (160 nM) were reacted with Ac-GP-cmk or TSGP-cmk (0-500 μM) at 37° C. in 50 mM Tris-HCl, pH 7.5 containing 100 mM NaCl, and 0.1 mg/ml bovine serum albumin (assay buffer). After 6 hours, residual protease activity against AP-AFC (50 μM) was measured using a Molecular Devices M2 plate reader in the kinetic mode (excitation 400 nm, emission 505 nm). Inhibition data are graphed as residual activity relative to protease activity in the absence of inhibitor.
(§9) Inhibition of FAP and DPP-4 by the cmk-based inhibitors was studied under pseudo-first order conditions. Proteases (100 nM) were reacted with 10 μM inhibitor in assay buffer at 37° C. for increasing amounts of time. Residual protease activity was then measured using AP-AFC (50 μM) as a substrate. Pseudo-first order rate constants were calculated from the slope of plots of Ln (residual protease activity) versus time. Apparent association constants (kass) for inhibition were determined from the relationship kass=kobs/[I], where kobs is the pseudo-first order rate constant and [I] is the inhibitor concentration.

FAP [6] = molecular target: T1, FAP; test: Inhibition of recombinant FAP by cmk-based irreversible inhibitors; type: biochemical; design: FAP (amino acids 38-760); FLAG (N); made in house; host or cells: 293 cells (secreted, purified from serum-free conditioned media); conditions: for inhibitor concentration-dependent inhibition of FAP: 10, 100, and 500 μM inhibitor, residual activity against L-Ala-Pro-AFC; for time course of FAP activity in the presence of inhibitor: substrate L-Ala-Pro-AFC
Experimental: as §6, §7, §8, §9

DPP-4 [7] = molecular target: T2, DPP-4; test: Inhibition of DPP-4 by N-blocked boroPro compounds (progress curves); type: biochemical; design: DPP-4 (amino acids 39-766); FLAG (N); made in house; host or cells: 293 cells (secreted, purified from serum-free conditioned media); conditions: for FAP/DPP-4 Selectivity: DPP-4 Ki relative to FAP Ki; for Ki: cleavage of substrate L-Ala-Pro-AFC
Experimental: (§10) The steady states of product formation in the absence (V0) and presence of inhibitor (Vi) were used to calculate apparent inhibition constants (Kiapp) by plotting V0/Vi−1 against inhibitor concentration.
(§11) Briefly, proteases were added to a reaction mixture containing inhibitor and substrate (Ac-Ala-AMC for APH, Z-Gly-Pro-AMC for POP, and Ala-Pro-AFC for all others) in assay buffer at 23° C. Protease activity was followed continuously as described above to monitor time-dependent inhibition. Data were plotted as V0/Vi−1 versus [I], where V0 is the rate if substrate hydrolysis in the absence of inhibitor, Vi is the steady state rate of substrate hydrolysis in the presence of inhibitor and [I] is the concentration of Ac-Gly-BoroPro.
(§12) KI values for inhibition of proteases by 5 were determined using the method of progress curves. Briefly, proteases (10-100 nM) were added to a reaction mixture containing inhibitor 5 (0-10 μM) and substrate AP-AFC in assay buffer at 23° C. […] Data were plotted as V0/Vi−1 versus [I], where V0 is the rate if substrate hydrolysis in the absence of inhibitor, Vi is the steady state rate of substrate hydrolysis in the presence of inhibitor and [I] is the concentration of 5. […] Ki, the true equilibrium inhibition constant was determined according to the following relationship: Ki=Kobs/(1+[S]/Km), where [S] is the concentration of substrate used in the assay and Km is the Michaelis constant for substrate cleavage.

FAP [8] = molecular target: T1, FAP; test: Inhibition of FAP by N-blocked boroPro compounds (progress curves); type: biochemical; design: FAP (amino acids 38-760); FLAG (N); made in house; host or cells: 293 cells (secreted, purified from serum-free conditioned media); conditions: cleavage of substrate L-Ala-Pro-AFC
Experimental: as §10, §11, §12

tumor cells = conditions: cited from earlier work
[9] = tested on: syngeneic tumors derived from fibrosarcoma, lymphoma, melanoma, and mastocytoma cell lines; conditions: oral administration to mice; cited from earlier work
DPP-4 [10] = molecular target: T2, DPP-4; conditions: FIG. 13
FAP [11] = molecular target: T1, FAP; conditions: FIG. 13

T2 sequence (P27487 39-766): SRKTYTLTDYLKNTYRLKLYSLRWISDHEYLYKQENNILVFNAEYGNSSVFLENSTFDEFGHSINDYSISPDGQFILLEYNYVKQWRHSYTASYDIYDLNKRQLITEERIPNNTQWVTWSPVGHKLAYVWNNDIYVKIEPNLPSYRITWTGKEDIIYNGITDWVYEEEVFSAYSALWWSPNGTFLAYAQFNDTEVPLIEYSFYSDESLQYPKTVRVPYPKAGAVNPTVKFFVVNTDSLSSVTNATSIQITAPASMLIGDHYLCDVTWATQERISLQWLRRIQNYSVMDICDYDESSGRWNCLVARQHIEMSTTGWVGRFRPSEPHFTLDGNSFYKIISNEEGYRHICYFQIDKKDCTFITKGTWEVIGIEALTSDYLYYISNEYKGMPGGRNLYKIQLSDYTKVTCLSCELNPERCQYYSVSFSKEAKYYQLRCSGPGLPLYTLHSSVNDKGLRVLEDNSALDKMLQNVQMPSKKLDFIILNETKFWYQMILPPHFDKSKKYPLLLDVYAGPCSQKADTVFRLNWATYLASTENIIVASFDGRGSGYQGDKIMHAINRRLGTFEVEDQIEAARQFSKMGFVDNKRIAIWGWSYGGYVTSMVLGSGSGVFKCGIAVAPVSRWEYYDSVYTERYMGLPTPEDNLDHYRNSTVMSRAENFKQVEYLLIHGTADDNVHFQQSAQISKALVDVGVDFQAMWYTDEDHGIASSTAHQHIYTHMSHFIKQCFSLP

| Compound | Ki (FAP [1]) | Ki (DPP-4 [2]) | Relative Hydrolysis rate by FAP (FAP [3]) | Relative Hydrolysis rate by DPP-4 (DPP-4 [4]) | FAP/DPP-4 Selectivity (DPP-4 [7]) | Ki (DPP-4 [7]) | Ki (FAP [8]) | other results |
| --- | --- | --- | --- | --- | --- | --- | --- | --- |
| CC(=O)NCC(=O)N1CCC[C@H]1C(=O)CCl [Ac-Gly-Pro-cmk, Acetyl-gly-pro-chloromethyl ketone] (Ac-Gly-Pro-CH2Cl) |  |  |  |  |  |  |  | inhibition of DPP-4 (DPP-4 [5]): not inhibited; time course of DPP-4 activity in the presence of inhibitor (DPP-4 [5]): not time-dependent inhibited; inhibitor concentration-dependent inhibition of FAP (FAP [6]): almost complete; time course of FAP activity in the presence of inhibitor (FAP [6]): time-dependent |
| O=C(CNCc1ccccc1)N1CCCC1B(O)O (stereo not drawn) [N-benzyl-Gly-boroPro] |  |  |  |  | 1.2 | 56 nM | 48 nM |  |
| CC(C)[C@H](N)C(=O)N1CCC[C@H]1B(O)O [PT-100, Val-boro-Pro] |  |  |  |  |  |  |  | direct cytotoxic effect on tumor cells (tumor cells): no direct cytotoxic effect; growth of syngeneic tumors [9]: slowed growth |
| CC(=O)NC(C(=O)NC(CO)C(=O)NCC(=O)N1CCCC1C(=O)CCl)C(C)O (stereo not drawn) [TSGP-cmk, acetyl-thre-ser-gly-pro-cmk] (Ac-TSGP-CH2Cl; configuration not given here) |  |  |  |  |  |  |  | inhibition of DPP-4 (DPP-4 [5]): not substantially inhibited; time course of DPP-4 activity in the presence of inhibitor (DPP-4 [5]): not time-dependent inhibited; inhibitor concentration-dependent inhibition of FAP (FAP [6]): almost complete; time course of FAP activity in the presence of inhibitor (FAP [6]): time-dependent |
| cyclohexylglycine-2-cyano-proline [CHCP] |  |  |  |  |  |  |  | effect of inhibitor concentration on cleavage of AP-AFC by DPP-4 (DPP-4 [10]): inhibitor concentration dependent cleavage by DPP-4; effect of inhibitor concentration on cleavage of AP-AFC by FAP (FAP [11]): not inhibitor concentration dependent cleavage by FAP |

Continued, in another order:

| Ki (FAP [1]) | Ki (DPP-4 [2]) | Relative Hydrolysis rate by FAP (FAP [3]) | Relative Hydrolysis rate by DPP-4 (DPP-4 [4]) | FAP/DPP-4 Selectivity (DPP-4 [7]) | Ki (DPP-4 [7]) | Ki (FAP [8]) | Compound | other results |
| --- | --- | --- | --- | --- | --- | --- | --- | --- |
| 1000 nM | > 2000 nM | 3 | 1 |  |  |  | CC(=O)NC(C)C(=O)N1CCCC1C(=O)Nc1ccc2c(C)c(CC(N)=O)c(=O)oc2c1 [Ac-(D-Ala)] |  |
| 200 nM | > 2000 nM | 3 | 0 |  |  |  | CC(=O)NC(CO)C(=O)N1CCCC1C(=O)Nc1ccc2c(C)c(CC(N)=O)c(=O)oc2c1 [Ac-(D-Ser)] |  |
|  |  |  |  | 44 | 1100 nM | 25 nM | Cc1cccc(C)c1C(=O)NCC(=O)N1CCCC1B(O)O (stereo not drawn) [N-(2,6-dimethylbenzoyl)-Gly-boroPro] |  |
|  |  |  |  | >3 | > 40000 nM | 16500 nM | CC(=O)NC(CO)C(=O)NCC(=O)N1CCCC1B(O)O (stereo not drawn) [N-Ac-Ser-Gly-boroPro] |  |
| 340 nM | 2000 nM | 2 | 1 |  |  |  | NCCC(=O)O [β-Ala] |  |
